This note sets out measurements from patent publication US9926282B2, “Phthalazinones and isoquinolinones as rock inhibitors” (BRISTOL-MYERS SQUIBB COMPANY, priority 2013, dated 2018).

One assay deals with ROCK2 (Homo sapiens (Human), UniProt O75116). The assay is described as follows: ROCK assay (LABCHIP peptide phosphorylation), ROCK2. It counts as biochemical. The conditions noted are these: 5 μM ATP, 1.5 μM peptide substrate.
The next assay has as its target ROCK1 (Homo sapiens (Human), UniProt Q13464). The assay is described as follows: ROCK assay (LABCHIP peptide phosphorylation), ROCK1. The conditions noted are these: 5 μM ATP, 1.5 μM peptide substrate; read-out: ROCK1 IC50. The assay is classed as biochemical.

Sequence of ROCK2 (O75116 whole entry, species assumed): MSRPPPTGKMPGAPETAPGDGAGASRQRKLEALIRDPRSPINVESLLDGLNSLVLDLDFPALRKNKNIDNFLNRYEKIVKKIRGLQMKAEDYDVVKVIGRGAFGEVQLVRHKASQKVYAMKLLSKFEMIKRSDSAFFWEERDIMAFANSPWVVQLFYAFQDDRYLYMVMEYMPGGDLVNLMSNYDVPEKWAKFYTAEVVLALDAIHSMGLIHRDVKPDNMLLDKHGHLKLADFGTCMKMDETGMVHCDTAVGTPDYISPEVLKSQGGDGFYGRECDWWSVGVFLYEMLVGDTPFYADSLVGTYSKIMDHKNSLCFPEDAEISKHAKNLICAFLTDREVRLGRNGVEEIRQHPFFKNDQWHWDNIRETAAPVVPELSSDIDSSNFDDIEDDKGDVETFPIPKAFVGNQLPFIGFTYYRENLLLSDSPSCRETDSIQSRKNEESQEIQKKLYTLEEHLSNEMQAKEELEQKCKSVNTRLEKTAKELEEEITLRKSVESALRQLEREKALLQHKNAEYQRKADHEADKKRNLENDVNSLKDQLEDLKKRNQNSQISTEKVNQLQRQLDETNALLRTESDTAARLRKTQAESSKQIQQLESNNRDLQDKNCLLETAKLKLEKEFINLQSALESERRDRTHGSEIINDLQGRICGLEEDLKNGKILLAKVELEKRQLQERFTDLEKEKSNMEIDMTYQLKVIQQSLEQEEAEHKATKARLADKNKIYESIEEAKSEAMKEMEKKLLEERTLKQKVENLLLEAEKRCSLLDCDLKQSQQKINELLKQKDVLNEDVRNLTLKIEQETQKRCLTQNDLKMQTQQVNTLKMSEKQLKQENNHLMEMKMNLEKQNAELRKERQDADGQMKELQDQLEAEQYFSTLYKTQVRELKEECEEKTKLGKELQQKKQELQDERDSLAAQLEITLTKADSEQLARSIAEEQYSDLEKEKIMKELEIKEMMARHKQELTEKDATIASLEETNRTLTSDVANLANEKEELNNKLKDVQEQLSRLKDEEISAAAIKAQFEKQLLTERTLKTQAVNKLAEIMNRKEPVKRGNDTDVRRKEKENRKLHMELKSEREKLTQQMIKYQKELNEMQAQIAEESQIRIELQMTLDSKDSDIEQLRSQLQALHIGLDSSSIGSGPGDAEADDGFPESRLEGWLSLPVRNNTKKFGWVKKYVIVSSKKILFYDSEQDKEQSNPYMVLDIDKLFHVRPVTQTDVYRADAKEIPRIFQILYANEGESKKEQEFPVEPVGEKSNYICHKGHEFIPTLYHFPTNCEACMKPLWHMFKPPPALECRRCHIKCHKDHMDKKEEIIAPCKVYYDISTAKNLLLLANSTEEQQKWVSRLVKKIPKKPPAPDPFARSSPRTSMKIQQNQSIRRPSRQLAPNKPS
Sequence of ROCK1 (Q13464 whole entry, species assumed): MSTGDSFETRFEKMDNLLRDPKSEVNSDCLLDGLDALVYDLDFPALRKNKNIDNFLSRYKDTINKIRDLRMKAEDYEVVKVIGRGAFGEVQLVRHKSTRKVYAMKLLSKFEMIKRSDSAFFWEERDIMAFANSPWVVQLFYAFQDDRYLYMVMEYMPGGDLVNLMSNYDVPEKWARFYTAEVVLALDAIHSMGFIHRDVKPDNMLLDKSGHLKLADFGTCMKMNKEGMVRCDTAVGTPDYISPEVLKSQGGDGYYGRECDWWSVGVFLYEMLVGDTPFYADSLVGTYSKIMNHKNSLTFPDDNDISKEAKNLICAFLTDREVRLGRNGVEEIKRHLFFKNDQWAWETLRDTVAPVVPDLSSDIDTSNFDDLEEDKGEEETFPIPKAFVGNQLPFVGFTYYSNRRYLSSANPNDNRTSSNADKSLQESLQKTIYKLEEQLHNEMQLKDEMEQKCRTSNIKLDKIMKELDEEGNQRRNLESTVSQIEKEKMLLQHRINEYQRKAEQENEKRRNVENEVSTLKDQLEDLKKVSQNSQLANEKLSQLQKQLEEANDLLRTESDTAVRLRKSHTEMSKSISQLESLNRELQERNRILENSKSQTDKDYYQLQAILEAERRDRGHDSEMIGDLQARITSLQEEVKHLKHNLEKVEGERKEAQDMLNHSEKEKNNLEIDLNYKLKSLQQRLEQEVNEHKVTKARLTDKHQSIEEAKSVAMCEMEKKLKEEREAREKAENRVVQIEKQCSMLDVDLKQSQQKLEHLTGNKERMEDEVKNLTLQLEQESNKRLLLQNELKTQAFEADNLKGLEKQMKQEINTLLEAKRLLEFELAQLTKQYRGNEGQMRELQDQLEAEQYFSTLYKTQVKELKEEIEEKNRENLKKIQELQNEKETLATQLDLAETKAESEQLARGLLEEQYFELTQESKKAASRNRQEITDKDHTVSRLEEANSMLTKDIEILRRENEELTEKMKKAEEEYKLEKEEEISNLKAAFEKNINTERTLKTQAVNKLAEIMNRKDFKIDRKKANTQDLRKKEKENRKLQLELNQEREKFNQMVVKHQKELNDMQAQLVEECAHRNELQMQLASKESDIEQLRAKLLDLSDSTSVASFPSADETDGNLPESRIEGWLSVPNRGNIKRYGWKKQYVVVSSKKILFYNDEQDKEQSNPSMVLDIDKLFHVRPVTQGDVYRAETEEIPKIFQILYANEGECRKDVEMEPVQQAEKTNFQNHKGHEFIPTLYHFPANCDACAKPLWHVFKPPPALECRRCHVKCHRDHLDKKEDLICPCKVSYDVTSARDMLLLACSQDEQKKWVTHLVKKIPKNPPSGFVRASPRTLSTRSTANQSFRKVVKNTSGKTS

A word on the IC50: it is the point on the concentration scale where inhibition reaches its midpoint. As to `Cc1cc(NC(=O)N2CCc3ccccc32)ccc1-c1n[nH]c(=O)c2ccccc12` [Example 324, N-(3-Methyl-4-(4-oxo-3,4-dihydrophthalazin-1-yl)phenyl)indoline-1-carboxamide], the IC50 on ROCK2 and at ROCK1 was 0.1 to 100 nM in each case.

On to `CCn1c(C(=O)Nc2ccc(-c3n[nH]c(=O)c4ccccc34)cc2)cc2ccccc21` [Example 107, 1-ethyl-N-[4-(4-oxo-3,4-dihydrophthalazin-1-yl)phenyl]-1H-indole-2-carboxamide], for which the IC50 against ROCK2 and at ROCK1 was 0.1 to 100 nM each time.

On to `O=C(Nc1ccc(-c2n[nH]c(=O)c3ccccc23)cc1)C1Cc2ccccc2C1` [Example 44, N-(4-(4-Oxo-3,4-dihydrophthalazin-1-yl)phenyl)-2,3-dihydro-1H-indene-2-carboxamide], for which the half-inhibitory concentration (IC50) against ROCK2 is 0.1 to 100 nM; on ROCK1, 1000 to 50000 nM.

As to `Cn1nc(C(=O)Nc2ccc(-c3n[nH]c(=O)c4ccccc34)cc2)cc1C(C)(C)C` [Example 206, 5-tert-butyl-1-methyl-N-[4-(4-oxo-3,4-dihydrophthalazin-1-yl)phenyl]-1H-pyrazole-3-carboxamide], the IC50 against ROCK2 and at ROCK1 was 0.1 to 100 nM throughout.

Take `O=C(Nc1ccc(-c2n[nH]c(=O)c3ccccc23)cc1)c1n[nH]c2c1C(=O)CCC2` [Example 109, 4-oxo-N-[4-(4-oxo-3,4-dihydrophthalazin-1-yl)phenyl]-4,5,6,7-tetrahydro-1H-indazole-3-carboxamide]: the IC50 at ROCK2 and on ROCK1 was 0.1 to 100 nM throughout.

Take `O=C(Nc1ccc(-c2n[nH]c(=O)c3ccccc23)cc1)C1CCN(c2ccc([N+](=O)[O-])cc2)CC1` [Example 54, 1-(4-nitrophenyl)-N-[4-(4-oxo-3,4-dihydrophthalazin-1-yl)phenyl]piperidine-4-carboxamide]: the IC50 against ROCK2 fell in the range of 0.1 to 100 nM; at ROCK1 it was 101 to 1000 nM.

Regarding `O=C(Nc1ccc(-c2n[nH]c(=O)c3ccccc23)cc1)c1ccc(-n2ccnc2)cc1` [Example 65, 4-(1H-imidazol-1-yl)-N-[4-(4-oxo-3,4-dihydrophthalazin-1-yl)phenyl]benzamide], the 50% inhibitory concentration (IC50) against ROCK2 and on ROCK1 was 0.1 to 100 nM throughout.

Consider `Cn1nc(C(=O)Nc2ccc(-c3n[nH]c(=O)c4ccccc34)cc2)cc1C12CC3CC(CC(C3)C1)C2` [Example 201, 5-(adamantan-1-yl)-1-methyl-N-[4-(4-oxo-3,4-dihydrophthalazin-1-yl)phenyl]-1H-pyrazole-3-carboxamide], for which the IC50 at ROCK2 and on ROCK1 was 0.1 to 100 nM in each case.

Turning to `Cc1cc(NC(=O)c2nn(CC3CCOCC3)c3ccccc23)ccc1-c1n[nH]c(=O)c2ccccc12` [Example 313, N-[3-methyl-4-(4-oxo-3,4-dihydrophthalazin-1-yl)phenyl]-1-(oxan-4-ylmethyl)-1H-indazole-3-carboxamide], the IC50 on ROCK2 and at ROCK1 was 0.1 to 100 nM throughout.

Regarding `O=C(O)COc1ccc2c(c1)N(C(=O)Cc1ccc(-c3n[nH]c(=O)c4ccccc34)cc1)CC2` [Example 290, 2-((1-(2-(4-(4-Oxo-3,4-dihydrophthalazin-1-yl)phenyl)acetyl)indolin-6-yl)oxy)acetic Acid], the IC50 on ROCK2 and on ROCK1 was 0.1 to 100 nM throughout.

Consider `CC(C)c1c(C(=O)Nc2ccc(-c3n[nH]c(=O)c4ccccc34)cc2)nnn1-c1ccccc1` [Example 221, N-[4-(4-oxo-3,4-dihydrophthalazin-1-yl)phenyl]-1-phenyl-5-(propan-2-yl)-1H-1,2,3-triazole-4-carboxamide], for which the IC50 at ROCK2 and at ROCK1 was 101 to 1000 nM each time.

For `CC(C)(O)CCn1nc(C(=O)Nc2ccc(-c3n[nH]c(=O)c4ccccc34)cc2)c2ccccc21` [Example 333, 1-(3-Hydroxy-3-methylbutyl)-N-(4-(4-oxo-3,4-dihydrophthalazin-1-yl)phenyl)-1H-indazole-3-carboxamide], the IC50 against ROCK2 and at ROCK1 was 0.1 to 100 nM throughout.

With `CC(C)(O)COc1ccc2c(c1)N(C(=O)Cc1ccc(-c3n[nH]c(=O)c4ccccc34)cc1)CC2` [Example 265, 4-(4-(2-(6-(2-Hydroxy-2-methylpropoxy)indolin-1-yl)-2-oxoethyl)phenyl)phthalazin-1(2H)-one], the half-inhibitory concentration (IC50) against ROCK2 and at ROCK1 was 0.1 to 100 nM in each case.

For `O=C(Nc1ccc(-c2n[nH]c(=O)c3ccccc23)c(CO)c1)c1cnc2ccccn12` [Example 365, N-(3-(Hydroxymethyl)-4-(4-oxo-3,4-dihydrophthalazin-1-yl)phenyl)imidazo[1,2-a]pyridine-3-carboxamide], the IC50 at ROCK2 (given as number) is 222 nM; at ROCK1, 1000 to 50000 nM.

Regarding `CCCc1c(C(=O)Nc2ccc(-c3n[nH]c(=O)c4ccccc34)cc2)nnn1-c1ccccc1` [Example 231, N-[4-(4-oxo-3,4-dihydrophthalazin-1-yl)phenyl]-1-phenyl-5-propyl-1H-1,2,3-triazole-4-carboxamide], the figures for the half-inhibitory concentration (IC50) on ROCK2 and on ROCK1 were 0.1 to 100 nM and 101 to 1000 nM, respectively.

`O=C(Nc1ccc(-c2n[nH]c(=O)c3ccccc23)cc1)c1cnn2ccc(OCCN3CCCC3)cc12` [Example 183, N-[4-(4-oxo-3,4-dihydrophthalazin-1-yl)phenyl]-5-[2-(pyrrolidin-1-yl)ethoxy]pyrazolo[1,5-a]pyridine-3-carboxamide]: the IC50 against ROCK2 and on ROCK1 was 0.1 to 100 nM throughout.

In the case of `COc1ccc2c(=O)[nH]cc(-c3ccc(OC(=O)N4Cc5ccccc5C4)cc3)c2c1` [Example 269, 4-(6-Methoxy-1-oxo-1,2-dihydroisoquinolin-4-yl)phenyl isoindoline-2-carboxylate], the IC50 on ROCK2 was in the range of 0.1 to 100 nM; on ROCK1 it was 1000 to 50000 nM.

As to `O=C(Cn1nc(C(=O)Nc2ccc(-c3n[nH]c(=O)c4ccccc34)cc2)c2ccccc21)NCC1(O)CCC1` [Example 335, 1-(2-(((1-Hydroxycyclobutyl)methyl)amino)-2-oxoethyl)-N-(4-(4-oxo-3,4-dihydrophthalazin-1-yl)phenyl)-1H-indazole-3-carboxamide], the 50% inhibitory concentration (IC50) against ROCK2 and on ROCK1 was 0.1 to 100 nM each time.

With `CN1CC[C@@H](Oc2ccc3c(c2)N(C(=O)Cc2ccc(-c4n[nH]c(=O)c5ccccc45)cc2)CC3)C1` [Example 277, 4-{4-[2-(6-{[(3R)-1-methylpyrrolidin-3-yl]oxy}-2,3-dihydro-1H-indol-1-yl)-2-oxoethyl]phenyl}-1,2-dihydrophthalazin-1-one], the 50% inhibitory concentration (IC50) on ROCK2 fell in the range of 0.1 to 100 nM; on ROCK1, 101 to 1000 nM.

`O=C(Cc1ccc(-c2n[nH]c(=O)c3ccccc23)cc1)N1CCCc2ccccc21` [Example 34, 4-{4-[2-oxo-2-(1,2,3,4-tetrahydroquinolin-1-yl)ethyl]phenyl}-1,2-dihydrophthalazin-1-one]: the concentration for half-maximal inhibition (IC50) on ROCK2 was 101 to 1000 nM; on ROCK1, 1000 to 50000 nM.

Turning to `Cc1cc(CC(=O)N2CCc3ccccc32)ccc1-c1n[nH]c(=O)c2ccccc12` [Example 259, 4-(4-(2-(Indolin-1-yl)-2-oxoethyl)-2-methylphenyl)phthalazin-1(2H)-one], the IC50 on ROCK2 was 0.1 to 100 nM; on ROCK1, 101 to 1000 nM.

Consider `O=C(Nc1ccc(-c2n[nH]c(=O)c3ccccc23)cc1)C1CCN(Cc2ccccc2)C1` (stereo not drawn) [Example 59, 1-benzyl-N-[4-(4-oxo-3,4-dihydrophthalazin-1-yl)phenyl]pyrrolidine-3-carboxamide], for which the IC50 at ROCK2 and at ROCK1 was 1000 to 50000 nM throughout.

As to `COC(=O)N1CC(Cn2nc(C(=O)Nc3ccc(-c4n[nH]c(=O)c5ccccc45)cc3)c3ccccc32)C1` [Example 341, Methyl 3-((3-((4-(4-oxo-3,4-dihydrophthalazin-1-yl)phenyl)carbamoyl)-1H-indazol-1-yl)methyl)azetidine-1-carboxylate], the IC50 against ROCK2 and on ROCK1 was 0.1 to 100 nM in each case.

For the compound `O=C(Cc1ccc(-c2n[nH]c(=O)c3ccccc23)cc1)N1CCc2ccc(OCc3ccccn3)cc21` [Example 271, 4-(4-{2-oxo-2-[6-(pyridin-2-ylmethoxy)-2,3-dihydro-1H-indol-1-yl]ethyl}phenyl)-1,2-dihydrophthalazin-1-one], the 50% inhibitory concentration (IC50) at ROCK2 and on ROCK1 was 0.1 to 100 nM throughout.

For the compound `COc1ccc(-n2nnc(C)c2C(=O)Nc2ccc(-c3n[nH]c(=O)c4ccccc34)cc2)cc1` [Example 402, 1-(4-Methoxyphenyl)-4-methyl-N-(4-(4-oxo-3,4-dihydrophthalazin-1-yl)phenyl)-1H-1,2,3-triazole-5-carboxamide], the 50% inhibitory concentration (IC50) on ROCK2 fell in the range of 0.1 to 100 nM; on ROCK1, 101 to 1000 nM.

As for `CC(C(=O)N1CCc2ccccc21)c1ccc(-c2n[nH]c(=O)c3ccccc23)cc1` (stereo not drawn) [Example 42, 4-(4-(1-(Indolin-1-yl)-1-oxopropan-2-yl)phenyl)phthalazin-1(2H)-one], the IC50 fell in the range of 0.1 to 100 nM on ROCK2 and 1000 to 50000 nM on ROCK1.

With `CN(C)c1cccc(C(=O)Nc2ccc(-c3n[nH]c(=O)c4ccccc34)cc2)c1` [Example 66, 3-(dimethylamino)-N-[4-(4-oxo-3,4-dihydrophthalazin-1-yl)phenyl]benzamide], the IC50 against ROCK2 and at ROCK1 was 0.1 to 100 nM throughout.

For the compound `O=C(Nc1ccc(-c2n[nH]c(=O)c3ccccc23)cc1)C1CC(=O)N(c2ccccc2)C1` (stereo not drawn) [Example 217, 5-oxo-N-[4-(4-oxo-3,4-dihydrophthalazin-1-yl)phenyl]-1-phenylpyrrolidine-3-carboxamide], the half-inhibitory concentration (IC50) lay within 101 to 1000 nM on ROCK2 and 1000 to 50000 nM on ROCK1.

For the compound `CC(C)(O)Cn1nc(C(=O)Nc2ccc(-c3n[nH]c(=O)c4ccccc34)cc2)c2cc(F)ccc21` [Example 167, 5-fluoro-1-(2-hydroxy-2-methylpropyl)-N-[4-(4-oxo-3,4-dihydrophthalazin-1-yl)phenyl]-1H-indazole-3-carboxamide], the IC50 at ROCK2 and on ROCK1 was 0.1 to 100 nM throughout.

With `O=C(Nc1ccc(-c2c[nH]c(=O)c3ccccc23)cc1)N1CCc2ccccc21` [Example 77, N-(4-(1-Oxo-1,2-dihydroisoquinolin-4-yl)phenyl)indoline-1-carboxamide], the IC50 on ROCK2 and on ROCK1 was 0.1 to 100 nM each time.
